Measured values: ChEMBL document CHEMBL4699646, “Eleutheroside E Enhances the Long-Term Memory of Radiation-Damaged C. elegans through G-Protein-Coupled Receptor and Neuropeptide Signaling Pathways” (J Nat Prod, 2020)
Activity calls are given as the source filed them. The calls are words filed in the database; no cut-off is given here.

Legend:
Caenorhabditis elegans [1] = assay: Memory enhancement effect in Caenorhabditis elegans N2 assessed as increase in long-term memory index at 0.1 mg/ml preincubated for 24 hrs followed by gamma-radiation treatment and measured after 24 hrs; assay type: functional, organism-based; conditions: time 48.0 hrs
Caenorhabditis elegans [2] = assay: Protective activity against radioactive-induced Caenorhabditis elegans N2 at 0.05 to 0.2 mg/ml preincubated for 24 hrs followed by gamma-radiation treatment and measured after 24 hrs; assay type: functional, organism-based; conditions: dose mg/ml 0.05-0.2, time 48.0 hrs
Caenorhabditis elegans [3] = assay: Protective activity against radioactive-induced Caenorhabditis elegans N2 assessed as head thrashes preincubated for 24 hrs followed by gamma-radiation treatment and measured after 24 hrs; assay type: functional, organism-based; conditions: time 48.0 hrs
Caenorhabditis elegans [4] = assay: Protective activity against radioactive-induced Caenorhabditis elegans N2 assessed as body bends preincubated for 24 hrs followed by gamma-radiation treatment and measured after 24 hrs; assay type: functional, organism-based; conditions: time 48.0 hrs
Caenorhabditis elegans [5] = assay: Protective activity against Butanone-induced Caenorhabditis elegans N2 assessed as chemotaxis index incubated for 1 hr; assay type: functional, organism-based
Caenorhabditis elegans [6] = assay: Inhibition of neuropeptide signaling pathway in radioactive-induced Caenorhabditis elegans N2 assessed as down regulation of npr-11 mRNA expression preincubated for 24 hrs followed by gamma-radiation treatment and measured after 24 hrs qRT-PCR analysis; conditions: time 48.0 hrs
Caenorhabditis elegans [7] = assay: Inhibition of neuropeptide pathway in radioactive-induced Caenorhabditis elegans N2 assessed as down regulation of npr-2 mRNA expression preincubated for 24 hrs followed by gamma-radiation treatment and measured after 24 hrs qRT-PCR analysis; conditions: time 48.0 hrs
Caenorhabditis elegans [8] = assay: Inhibition of neuropeptide pathway in radioactive-induced Caenorhabditis elegans N2 assessed as down regulation of nlp-23 mRNA expression preincubated for 24 hrs followed by gamma-radiation treatment and measured after 24 hrs qRT-PCR analysis; conditions: time 48.0 hrs
Caenorhabditis elegans [9] = assay: Inhibition of neuropeptide pathway in radioactive-induced Caenorhabditis elegans N2 assessed as down regulation of nlp-5 mRNA expression preincubated for 24 hrs followed by gamma-radiation treatment and measured after 24 hrs qRT-PCR analysis; conditions: time 48.0 hrs
Caenorhabditis elegans [10] = assay: Inhibition of neuropeptide pathway in radioactive-induced Caenorhabditis elegans N2 assessed as down regulation of nlp-1 mRNA expression preincubated for 24 hrs followed by gamma-radiation treatment and measured after 24 hrs qRT-PCR analysis; conditions: time 48.0 hrs
Caenorhabditis elegans [11] = assay: Inhibition of Gq-alpha-coupled PLC pathway in radioactive-induced Caenorhabditis elegans N2 assessed as down regulation of egl-30 mRNA expression preincubated for 24 hrs followed by gamma-radiation treatment and measured after 24 hrs qRT-PCR analysis; conditions: time 48.0 hrs
Caenorhabditis elegans [12] = assay: Inhibition of Gs-apha-coupled PKA pathway in radioactive-induced Caenorhabditis elegans N2 assessed as down regulation of kin-2 mRNA expression preincubated for 24 hrs followed by gamma-radiation treatment and measured after 24 hrs qRT-PCR analysis; conditions: time 48.0 hrs
Caenorhabditis elegans [13] = assay: Inhibition of Gq-alpha-coupled PLC pathway in radioactive-induced Caenorhabditis elegans N2 assessed as down regulation of egl-8 mRNA expression preincubated for 24 hrs followed by gamma-radiation treatment and measured after 24 hrs qRT-PCR analysis; conditions: time 48.0 hrs
Caenorhabditis elegans [14] = assay: Inhibition of Gq-alpha-coupled PLC pathway in radioactive-induced Caenorhabditis elegans N2 assessed as up regulation of goa-1 mRNA expression preincubated for 24 hrs followed by gamma-radiation treatment and measured after 24 hrs qRT-PCR analysis; conditions: time 48.0 hrs
Caenorhabditis elegans [15] = assay: Inhibition of Gs-apha-coupled PKA pathway in radioactive-induced Caenorhabditis elegans N2 assessed as down regulation of gsa-1 mRNA expression preincubated for 24 hrs followed by gamma-radiation treatment and measured after 24 hrs qRT-PCR analysis; conditions: time 48.0 hrs
Caenorhabditis elegans [16] = assay: Inhibition of cGMP signaling pathway in radioactive-induced Caenorhabditis elegans N2 assessed as down regulation of odr-1 mRNA expression preincubated for 24 hrs followed by gamma-radiation treatment and measured after 24 hrs qRT-PCR analysis; conditions: time 48.0 hrs
Caenorhabditis elegans [17] = assay: Inhibition of cGMP signaling pathway in radioactive-induced Caenorhabditis elegans N2 assessed as down regulation of daf-11 mRNA expression preincubated for 24 hrs followed by gamma-radiation treatment and measured after 24 hrs qRT-PCR analysis; conditions: time 48.0 hrs
Caenorhabditis elegans [18] = assay: Inhibition of cGMP signaling pathway in radioactive-induced Caenorhabditis elegans N2 assessed as down regulation of tax-2 mRNA expression preincubated for 24 hrs followed by gamma-radiation treatment and measured after 24 hrs qRT-PCR analysis; conditions: time 48.0 hrs
Caenorhabditis elegans [19] = assay: Inhibition of cGMP signaling pathway in radioactive-induced Caenorhabditis elegans N2 assessed as down regulation of tax-4 mRNA expression preincubated for 24 hrs followed by gamma-radiation treatment and measured after 24 hrs qRT-PCR analysis; conditions: time 48.0 hrs
Caenorhabditis elegans [20] = assay: Memory enhancement effect in radioactive-induced Caenorhabditis elegans MT1434 harboring egl-30(n686) mutant assessed as memory index preincubated for 24 hrs followed by gamma-radiation treatment and measured after 24 hrs; assay type: functional, organism-based; conditions: time 48.0 hrs
Caenorhabditis elegans [21] = assay: Memory enhancement effect in radioactive-induced Caenorhabditis elegans MY66 harboring egl-30(n686);Podr-1-mcherry::egl-30(mtIs35)] mutant assessed as memory index preincubated for 24 hrs followed by gamma-radiation treatment and measured after 24 hrs; assay type: functional, organism-based; conditions: time 48.0 hrs
Caenorhabditis elegans [22] = assay: Memory enhancement effect in radioactive-induced Caenorhabditis elegans harboring RNAi egl8;egl-30(n686)ls(Podr-1-mcherry::egl-30) mutant assessed as memory index preincubated for 24 hrs followed by gamma-radiation treatment and measured after 24 hrs; assay type: functional, organism-based; conditions: time 48.0 hrs
Caenorhabditis elegans [23] = assay: Memory enhancement effect in radioactive-induced Caenorhabditis elegans RB1341 harboring […] mutant assessed as memory index preincubated for 24 hrs followed by gamma-radiation treatment and measured after 24 hrs; assay type: functional, organism-based; conditions: time 48.0 hrs
Caenorhabditis elegans [24] = assay: Memory enhancement effect in radioactive-induced Caenorhabditis elegans harboring RNAi podr-1::unc-31 mutant assessed as memory index preincubated for 24 hrs followed by gamma-radiation treatment and measured after 24 hrs; assay type: functional, organism-based; conditions: time 48.0 hrs
Caenorhabditis elegans [25] = assay: Memory enhancement effect in radioactive-induced Caenorhabditis elegans assessed as increase in cAMP level preincubated for 24 hrs followed by gamma-radiation treatment and measured after 24 hrs; assay type: functional, organism-based; conditions: time 48.0 hrs
Caenorhabditis elegans [26] = assay: Activation of CREB in radioactive-induced Caenorhabditis elegans YT17 harboring crh-1(tz2) mutant assessed as increase in long-term memory preincubated for 24 hrs followed by gamma-radiation treatment and measured after 24 hrs; conditions: time 48.0 hrs
Caenorhabditis elegans [27] = assay: Activation of CREB in radioactive-induced Caenorhabditis elegans YT17 harboring crh-1(tz2) mutant assessed as reduction radiation-induced damage preincubated for 24 hrs followed by gamma-radiation treatment and measured after 24 hrs; conditions: time 48.0 hrs
Caenorhabditis elegans [28] = assay: Activation of CREB in radioactive-induced Caenorhabditis elegans MY36 harboring [crh-1(tz2); Pmbr-1-mcherry::crh-1(mtIs18)] mutant assessed as increase in long-term memory preincubated for 24 hrs followed by gamma-radiation treatment and measured after 24 hrs; conditions: filed as activator, time 48.0 hrs

With `COc1cc([C@H]2OC[C@@H]3[C@@H]2CO[C@H]3c2cc(OC)c(O[C@@H]3O[C@H](CO)[C@@H](O)[C@H](O)[C@H]3O)c(OC)c2)cc(OC)c1O[C@@H]1O[C@H](CO)[C@@H](O)[C@H](O)[C@H]1O` the Activity (Caenorhabditis elegans [1]) was “Active”, the Activity (Caenorhabditis elegans [2]) was “inactive” and the Activity (Caenorhabditis elegans [3]) was “inactive”. The Activity (Caenorhabditis elegans [4]) was “inactive”, the Activity (Caenorhabditis elegans [5]) was “inactive” and the inhibition (Caenorhabditis elegans [6]) was “Active”. For the same compound, the inhibition (Caenorhabditis elegans [7]) was “Active”, the inhibition (Caenorhabditis elegans [8]) was “Active” and the inhibition (Caenorhabditis elegans [9]) was “Active”. For the same compound, the inhibition (Caenorhabditis elegans [10]) was “Active”, the inhibition (Caenorhabditis elegans [11]) was “Active” and the inhibition (Caenorhabditis elegans [12]) was “Active”. The inhibition (Caenorhabditis elegans [13]) was “Active”, the inhibition (Caenorhabditis elegans [14]) was “Active” and the inhibition (Caenorhabditis elegans [15]) was “Active”. For the same compound, the inhibition (Caenorhabditis elegans [16]) was “inactive”, the inhibition (Caenorhabditis elegans [17]) was “inactive” and the inhibition (Caenorhabditis elegans [18]) was “inactive”. The inhibition (Caenorhabditis elegans [19]) was “inactive”, the Activity (Caenorhabditis elegans [20]) was “inactive” and the Activity (Caenorhabditis elegans [21]) was “Active”. The Activity (Caenorhabditis elegans [22]) was “inactive”, the Activity (Caenorhabditis elegans [23]) was “Active” and the Activity (Caenorhabditis elegans [24]) was “inactive”. The Activity (Caenorhabditis elegans [25]) was “Active”, the Activity (Caenorhabditis elegans [26]) was “inactive” and the Activity (Caenorhabditis elegans [27]) was “inactive”. The Activity (Caenorhabditis elegans [28]) was “Active”.
